# In BindingDB's records for doi:10.7270/Q2Q52N1X (Vanderbilt Screening Center for GPCRs, Ion Channels and …, 2009):
# pEC50: −log10 of the molar value.
# Biological target: T1, Solute carrier family 12 member 5 (Homo sapiens, UniProt Q9H2X9)
# T1 sequence (Q9H2X9 whole entry): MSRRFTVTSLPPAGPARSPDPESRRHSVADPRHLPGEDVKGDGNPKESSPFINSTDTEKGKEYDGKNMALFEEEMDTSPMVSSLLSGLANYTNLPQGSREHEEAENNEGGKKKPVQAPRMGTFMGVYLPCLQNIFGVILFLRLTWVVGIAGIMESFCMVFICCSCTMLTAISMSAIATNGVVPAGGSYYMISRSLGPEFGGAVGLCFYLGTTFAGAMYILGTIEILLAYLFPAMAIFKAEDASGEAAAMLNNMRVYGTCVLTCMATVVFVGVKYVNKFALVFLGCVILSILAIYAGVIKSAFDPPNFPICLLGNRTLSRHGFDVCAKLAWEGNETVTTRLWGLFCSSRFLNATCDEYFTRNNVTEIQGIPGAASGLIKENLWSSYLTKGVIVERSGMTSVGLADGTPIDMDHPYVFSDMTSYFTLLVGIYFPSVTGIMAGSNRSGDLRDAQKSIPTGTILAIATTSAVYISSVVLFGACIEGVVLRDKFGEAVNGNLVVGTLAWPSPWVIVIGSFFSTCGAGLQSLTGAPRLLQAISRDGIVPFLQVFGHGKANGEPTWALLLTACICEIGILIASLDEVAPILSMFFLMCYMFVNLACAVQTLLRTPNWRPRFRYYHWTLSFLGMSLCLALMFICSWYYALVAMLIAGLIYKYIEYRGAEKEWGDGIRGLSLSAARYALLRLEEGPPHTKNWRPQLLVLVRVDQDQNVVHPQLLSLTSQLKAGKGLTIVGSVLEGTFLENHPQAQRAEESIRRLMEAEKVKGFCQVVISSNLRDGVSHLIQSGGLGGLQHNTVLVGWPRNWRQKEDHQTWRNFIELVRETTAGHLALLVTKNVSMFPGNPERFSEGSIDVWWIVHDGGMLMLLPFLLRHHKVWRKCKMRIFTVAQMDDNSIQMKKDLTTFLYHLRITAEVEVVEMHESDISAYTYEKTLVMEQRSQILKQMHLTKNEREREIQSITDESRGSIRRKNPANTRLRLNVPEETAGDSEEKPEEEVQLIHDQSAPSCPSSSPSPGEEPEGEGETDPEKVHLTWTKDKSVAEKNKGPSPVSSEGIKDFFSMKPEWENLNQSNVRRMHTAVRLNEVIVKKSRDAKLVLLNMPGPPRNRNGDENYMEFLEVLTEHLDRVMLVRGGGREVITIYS
# Assay: concentration-response of KCC2 transport modulators – cell-based, HEK293 KCC2, FluoZin-2 fluorescence, dose response (AID 1736)
# Conditions: not given
row,SMILES,pEC50
1,O=S(=O)(Nc1nc2ccccc2nc1N1CCN(c2ccccn2)CC1)c1ccc(Cl)cc1 [4-chloranyl-N-[3-(4-pyridin-2-ylpiperazin-1-yl)quinoxalin-2-yl]benzenesulfonamide],5.03
2,COc1cc(C(=S)N2CCOCC2)ccc1OC(=O)Cc1ccc(F)cc1 [(2-methoxy-4-morpholin-4-ylcarbothioyl-phenyl) 2-(4-fluorophenyl)ethanoate],3.86
3,O=C(C=Cc1ccccc1)CC(=O)c1ccccc1O [MLS000627068],4.91
4,"Sc1nnc(CNc2cccc(Cl)c2)o1 [5-[(3-chloroanilino)methyl]-3H-1,3,4-oxadiazole-2-thione]",5.83
5,"Cc1cc(C(=O)COC(=O)CCc2nc3ccccc3s2)c(C)n1C [3-(1,3-benzothiazol-2-yl)propanoic acid [2-oxo-2-(1,2,5-trimethyl-3-pyrrolyl)ethyl] ester]",4.80
6,O=C(O)c1cc(-c2ccc(F)cc2F)ccc1O,4.97
7,CCN(CC)S(=O)(=O)c1ccc(NC(=O)CSc2ncnc3ccccc23)cc1 [MLS000393282],5.29
8,c1ccc(-c2nnc(Sc3ncnc4c3cnn4-c3ccccc3)[nH]2)cc1 [SMR000019566],4.91
9,"CC1Cc2ccccc2N1C(=O)CSc1nnnn1Cc1ccccc1 (stereo unspecified) [1-(2-methyl-2,3-dihydroindol-1-yl)-2-[[1-(phenylmethyl)-1,2,3,4-tetrazol-5-yl]sulfanyl]ethanone]",5.72
10,"O=C(C1CC1)N1CCc2cc(S(=O)(=O)NC3CCN(Cc4ccccc4)CC3)ccc21 [1-[cyclopropyl(oxo)methyl]-N-[1-(phenylmethyl)-4-piperidinyl]-2,3-dihydroindole-5-sulfonamide]",4.64
11,"COc1ccc(-c2cc(CCCC(=O)NCCc3ccccc3)no2)cc1 [4-[5-(4-methoxyphenyl)-1,2-oxazol-3-yl]-N-(2-phenylethyl)butanamide]",5.74
12,O=C(NCC1CCCO1)C(c1cccs1)N(C(=O)c1ccc(-c2ccccc2)[nH]1)C1CCCC1 (stereo unspecified) [5-Phenyl-1H-pyrrole-2-carboxylic acid cyclopentyl-{[(tetrahydro-furan-2-ylmethyl)-carbamoyl]-thiophen-2-yl-methyl}-amide],5.25
13,CS(=O)(=O)N(CC(=O)N1CCN(c2ccc(F)cc2)CC1)c1ccc(F)c(Cl)c1 [MLS000531433],5.12
14,Cc1ccc2oc(-c3ccc(C)c(NC(=S)NC(=O)c4cccs4)c3)nc2c1 [1-[2-Methyl-5-(5-methyl-benzooxazol-2-yl)-phenyl]-3-(thiophene-2-carbonyl)-thiourea],6.70
15,CN(CC(=O)N1CCN(Cc2ccccc2)CC1)S(=O)(=O)c1cccc2nsnc12 [MLS000674627],6.02
16,Cc1nonc1NC(=O)CSc1ccc(-c2ccccc2)nn1 [MLS000074514],5.95
17,"Cc1cc(C)c(C#N)c(N2CCN(Cc3ccccc3)CC2)n1 [2-(4-benzyl-1-piperazinyl)-4,6-dimethylnicotinonitrile]",4.71
18,"CCC(Cc1ccccc1)NC(=O)CN(C)S(=O)(=O)c1ccc2c(c1)c(=O)n(C)c(=O)n2C (stereo unspecified) [2-[(1,3-dimethyl-2,4-dioxo-6-quinazolinyl)sulfonyl-methylamino]-N-(1-phenylbutan-2-yl)acetamide]",2.62
19,COCCNS(=O)(=O)c1ccc(-c2ccc(Cl)cc2)cc1 [4'-chloro-N-(2-methoxyethyl)-4-biphenylsulfonamide],5.11
20,O=c1[nH]c2c(s1)C(c1ccccc1)c1c(c(O)n(-c3ccccc3)c1O)S2 (stereo unspecified),6.99
21,CC(=O)NC(C)C(=O)OCC(=O)c1ccc(-c2ccccc2)cc1 (stereo unspecified) [2-acetamidopropanoic acid [2-oxo-2-(4-phenylphenyl)ethyl] ester],5.10
22,N#Cc1nc(Cc2cccc3ccccc23)oc1NCCN1CCOCC1 [5-(2-Morpholin-4-yl-ethylamino)-2-naphthalen-1-ylmethyl-oxazole-4-carbonitrile],4.99
23,"O=C(Nc1cccnc1)c1ccc(COc2cc(Cl)ccc2Cl)o1 [5-[(2,5-dichlorophenoxy)methyl]-N-(3-pyridinyl)-2-furancarboxamide]",3.97
24,"O=C(OCC(=O)N1CCc2ccccc2C1)c1ccc(N2CCOCC2)c([N+](=O)[O-])c1 [4-(4-morpholinyl)-3-nitrobenzoic acid [2-(3,4-dihydro-1H-isoquinolin-2-yl)-2-oxoethyl] ester]",5.23
25,O=C(CCSCCc1ccccn1)Nc1ccc(Cc2ccncc2)cc1 [3-(2-pyridin-2-ylethylsulfanyl)-N-[4-(pyridin-4-ylmethyl)phenyl]propanamide],5.08
26,"O=C(c1cc(COc2c(F)cccc2F)on1)N1CCC(c2ccncc2)CC1 [4-[1-({5-[(2,6-difluorophenoxy)methyl]isoxazol-3-yl}carbonyl)piperidin-4-yl]pyridine]",4.91
27,Cc1ccc2[nH]c(=O)c(CN(CCc3ccccc3)Cc3nnnn3CC3CCCO3)cc2c1 (stereo unspecified) [SMR000003177],3.61
28,O=C(CSc1ccc(-c2ccccc2)nn1)c1ccccc1 [1-phenyl-2-(6-phenylpyridazin-3-yl)sulfanyl-ethanone],6.06
29,"CCOC(=O)c1cc2c(ccn2C)n1CC(=O)N1CCC(Cc2ccccc2)CC1 [1-[2-(4-Benzyl-piperidin-1-yl)-2-oxo-ethyl]-4-methyl-1,4-dihydro-pyrrolo[3,2-b]pyrrole-2-carboxylic acid ethyl ester]",5.12
30,"O=C(CSc1ccc(-c2ccccc2)nn1)N1CCCc2ccccc21 [1-(3,4-dihydro-2H-quinolin-1-yl)-2-(6-phenylpyridazin-3-yl)sulfanyl-ethanone]",4.98

# Next, values leading:
row,pEC50,SMILES
1,5.42,"Cc1ccc(C)c(C(=O)NC(C)CCc2ccccc2)c1 (stereo unspecified) [2,5-dimethyl-N-(1-methyl-3-phenyl-propyl)benzamide]"
2,5.39,"COC(=O)[C@@H](NC(=O)O[C@@H]1C(=O)c2ccc(OC)cc2O[C@H]1c1cccc(C(F)(F)F)c1)C(C)C [(2S)-2-[[(2S,3S)-4-keto-7-methoxy-2-[3-(trifluoromethyl)phenyl]chroman-3-yl]oxycarbonylamino]-3-methyl-butyric acid methyl ester]"
3,6.50,O=C(NCCOc1ccccc1F)c1ccccc1SCc1ccc(F)cc1 [2-[(4-fluorobenzyl)thio]-N-[2-(2-fluorophenoxy)ethyl]benzamide]
4,5.67,"Cc1ccc(-c2csc(NC(=O)CCNC(=O)c3ccccc3Cl)n2)cc1 [2-chloranyl-N-[3-[[4-(4-methylphenyl)-1,3-thiazol-2-yl]amino]-3-oxidanylidene-propyl]benzamide]"
5,5.26,CCc1ccc(C(=O)COC(=O)c2cc([N+](=O)[O-])ccc2NCCO)cc1 [2-(2-hydroxyethylamino)-5-nitro-benzoic acid [2-(4-ethylphenyl)-2-keto-ethyl] ester]
6,1.09,"O=C(O)CC/C(=C\c1ccc(N2CCOCC2)c([N+](=O)[O-])c1)c1nc2ccccc2s1 [(E)-4-(1,3-benzothiazol-2-yl)-5-(4-morpholin-4-yl-3-nitro-phenyl)pent-4-enoic acid]"
7,5.61,"Sc1nnc(CCc2ccc(Cl)cc2)o1 [5-[2-(4-chlorophenyl)ethyl]-1,3,4-oxadiazole-2-thiol]"
8,5.27,"Cc1noc(/C=C/c2ccco2)c1S(=O)(=O)N1CCC(C(=O)N2CCc3ccccc3C2)CC1 [2-{[1-({5-[(E)-2-(2-furyl)vinyl]-3-methylisoxazol-4-yl}sulfonyl)piperidin-4-yl]carbonyl}-1,2,3,4-tetrahydroisoquinoline]"
9,6.74,"Cc1cc(NC(=O)CSc2ccc(-c3ccc(F)cc3)nn2)no1 [2-[6-(4-fluorophenyl)pyridazin-3-yl]sulfanyl-N-(5-methyl-1,2-oxazol-3-yl)acetamide]"
10,3.66,CC(C)N1C(=O)S/C(=C/c2ccccc2OCc2ccc(C(=O)O)cc2)C1=O
11,4.09,Cc1ccc(Cn2c(SCC(=O)Nc3cc(C)on3)nc3ccccc3c2=O)cc1 [2-[[4-keto-3-(4-methylbenzyl)quinazolin-2-yl]thio]-N-(5-methylisoxazol-3-yl)acetamide]
12,5.40,Cn1c(SCc2ccccc2Cl)nc2ccccc21 [2-[(2-chlorobenzyl)thio]-1-methyl-1H-benzimidazole]
13,5.57,O=C(CC(Cc1ccccc1)c1ccco1)NC1CCCCC1 (stereo unspecified) [MLS000556612]
14,4.90,N#Cc1ccccc1NC(=O)CSc1nccn1CCc1ccccc1 [MLS000051858]

# Same assay, conditions: inactive by the depositor's call
row,pEC50,SMILES
1,7.13,"O=C(NC(=S)Nc1ccc2c(c1)OCO2)c1ccc(Cl)cc1 [1-Benzo[1,3]dioxol-5-yl-3-(4-chloro-benzoyl)-thiourea]"
2,3.73,"Cc1ccc(C=Nn2c(-c3ccc(Cl)cc3)n[nH]c2=S)s1 [3-(4-chlorophenyl)-4-[(5-methyl-2-thiophenyl)methylideneamino]-1H-1,2,4-triazole-5-thione]"
